Holding throughout (format): in vivo, Nicotiana benthamiana
For assay [1], the system named is RuBisCO large and small subunit. Kind of assay: RuBisCO large and small subunit levels, immunodetection and densitometry. As to conditions: for depletion of RuBisCO large and small subunit pools, less than in controls: uninfiltrated leaves, seven days post-treatment. The protocol:
FIGS. 1a-1d show total soluble proteins (TSP), 1-D proteome profile and RuBisCO subunit levels in agroinfiltrated and control N. benthamiana leaves treated with the stress elicitor MeJA 24 h before infection. […] FIGS. 1c and 1d show relative amounts of RuBisCO large (RbcL; FIG. 1c) and small (RbsS; FIG. 1d) subunits in MeJA-treated leaves as determined by densitometry following immunodetection with appropriate antibodies. Protein signals on the immunoblots were quantified using the Phoretix 2-D Expression software v. 2005 (NonLinear USA, Durham N.C., U.S.A.) after scanning nitrocellulose membranes with a Microtek ScanMaker II digitalizer (Microtek Laboratory, Torrance Calif., U.S.A.). Data are expressed as relative levels compared to non-treated controls assigned an arbitrary level of 1.0. Each bar on panels (a) and (c) is the mean of three independent (leaf replicate) values±SE. Infiltrated leaves were transfected with A. tumefaciens cells 24 h post-MeJA treatment. All plant samples were harvested seven days post-MeJA treatment (i.e. six days post-agroinfiltration for the transfected plants).
Forty-two day-old N. benthamiana plants grown in greenhouse were used for the experiments. Each plant was sprayed evenly with 50 ml of 0.5 mM, 1 mM or 2 mM MeJA in water containing 0.1% (v/v) Triton X-100 (Sigma-Aldrich, Mississauga ON, Canada), or with 50 ml of 1 mM arachidonic acid (Girard et al., 2007) in the same solvent, and transferred for seven days in a Conviron growth chamber (Conviron, Winnipeg MB, Canada). Plants sprayed with 50 ml of 0.1% (v/v) Triton X-100 in water were used in parallel as negative controls to avoid confounding effects due to experimental conditions. Two or three 1-cm^2 leaf discs were harvested from the third main stem leaf (see Robert et al., 2013) after seven days, as source material for protein and RNA extraction. The leaf samples were frozen immediately in liquid nitrogen and stored at −80° C. until protein or RNA extraction. Three to five biological (plant) replicates were used for each treatment, to allow for statistical treatment of the data. […]

Assay [2] concerns 33-kDa pathogen-inducible PR-2 protein. Kind of assay: 33-kDa PR-2 protein accumulation, immunodetection and densitometry. To be noted: non-infiltrated leaves; sprayed at 0.5 or 1 mM; ANOVA P>0.05. The source says:
FIGS. 2a-2c show the effect of MeJA treatment on PR-2 protein accumulation, agrobacteria numbers and transcript numbers of the two A. tumefaciens virulence proteins VirB1 and VirE1 in N. benthamiana leaves. […] Immunoblot signals were quantified using the Phoretix 2-D Expression software v. 2005 (NonLinear USA) after scanning nitrocellulose membranes with a Microtek ScanMaker II digitalizer (Microtek Laboratory). Data are the mean of three leaf replicates±SE. An arbitrary value of 1.0 was assigned to PR-2 level in control healthy leaves. […] Data are expressed as log numbers of colony-forming units (CFU) on agar plates and each point is the mean of five independent (leaf replicate) values±SE. […]
Whole leaf proteins were extracted from three 1-cm^2 leaf discs in 400 μl of ice-cold 50 mM Tris-HCl, pH 7.5, containing 150 mM NaCl, by disrupting the leaf samples with tungsten carbide beads (Qiagen, Mississauga ON, Canada) in a Mini-Beadbeater apparatus (BioSpec, Bartlesville Okla., USA). […] RuBisCO small subunit was detected using polyclonal IgG raised in rabbit against a synthetic small subunit peptide (Agrisera, Vännäs, Sweden) and alkaline phosphatase-conjugated goat anti-rabbit IgG as secondary antibodies (Sigma-Aldrich). […] C5-1 light and heavy chains were detected with alkaline phosphatase-conjugated goat anti-mouse IgG antibodies (Sigma-Aldrich).

The test system of assay [3] is cathepsin D/E-like A1 Asp proteases. Kind of assay: Protease assay in leaf crude extracts, MOCAc substrate. To be noted: seven days post-treatment.

As to `CC/C=C\C[C@H]1C(=O)CC[C@@H]1CC(=O)OC` [MeJA, methyl jasmonate], the “depletion of RuBisCO large and small subunit pools, less than in controls” value is listed as ~40% in assay [1] (0.5 mM dose) and “more than 90%” in assay [1] (2 mM dose). Besides, the “RuBisCO large and small subunits, share of original content relative to untreated plants” value in assay [1] (agroinfiltrated leaves (empty vector, 24 h post-treatment), 1 or 2 mM, six days post-infection) is listed as “less than 50%”. Moreover, the “expression of 33-kDa PR-2 protein” value in assay [2] is reported as “no significant effect”. Further, the “cathepsin D/E-like activity” value in assay [3] (agroinfiltrated leaves) is listed as “also observed in agroinfiltrated leaves”; in assay [3] (uninfiltrated plants, P<0.001) it was “dose-dependent decrease”.
